Structures can show the parent of a compound that is named as a salt.

The melting point is the temperature, or range, at which the solid turns liquid.

`CC(C)S(=O)(=O)c1ccc2c(c1)nc(CC(C)(C)C)n2CCN1CCOCC1`: the melting point was determined as 151 °C.
Compound `CC(C)S(=O)(=O)c1cnc2c(c1)nc(CC(C)(C)C)n2CCN(C)C` registered a melting point of 119 °C.
The figure for `CC(C)S(=O)(=O)c1cnc2c(c1)nc(CC(C)(C)C)n2CC1(O)CCOCC1` is 179 °C; for `CC(C)S(=O)(=O)c1ccc2c(c1)nc(CC(C)(C)C)n2CC1(O)CCOCC1` it is 189 °C; for `CCS(=O)(=O)c1cnc2c(c1)nc(CC(C)(C)C)n2CC1CCOCC1` it is 191 °C.
Then `CC(C)S(=O)(=O)c1ccc2c(c1)nc(CC1CC1)n2CC1CC1`, with 107 °C.
`CCS(=O)(=O)c1ccc2c(c1)nc(CC(C)(C)C)n2CCOC(F)(F)F` gave a melting point of 133 °C.
The figure for `CC(C)S(=O)(=O)c1cnc2c(c1)nc(CC(C)(C)C)n2CC1CCOCC1` is 201 °C; for `CC(C)S(=O)(=O)c1ccc2c(c1)nc(CC1CCCC1)n2CC1CC1` it is 137 °C; for `CCS(=O)(=O)c1ccc2c(c1)nc(CC(C)(C)C)n2CC1(O)CCCC1` it is 172 °C.
As to `CCS(=O)(=O)c1ccc2c(c1)nc(CC(C)(C)C)n2CC1CCCO1` (stereo not drawn), the melting point came to 142 °C.
Then `CC(C)S(=O)(=O)c1ccc2c(c1)nc(CC(C)(C)C)n2CCN(C)C`, with 116 °C; and `CC(C)(C)Cc1nc2cc(S(=O)(=O)c3ccccc3)ccc2n1CC1CC1`, with 173 °C; and `CC(C)(C)Cc1nc2cc(S(C)(=O)=O)ccc2n1CC1CC1` (as salt: hydrochloride), with 217 °C.
Then `CC(C)S(=O)(=O)c1ccc2c(c1)nc(CC1(C)CCCC1)n2CC1CC1`, with 122 °C.
